Data from patent US10160986B2, “Chemoenzymatic synthesis of heparin and heparan sulfate analogs” (The Regents of the University of California, priority 2011, dated 2018).
Where two headings read alike, the source gives them in different places.

Key:
NahK_ATCC55813 = NahK_ATCC55813 (Bifidobacterium longum subsp. longum, UniProt E8MF12, D7V/R348H); type: biochemical; set-up: made in house; host or cells: E. coli BL21(DE3)
Protocol: (§1) Substrates specificity assays. GlcNAc, GalNAc, and their derivatives (1 mM) were used as substrates in the presence of ATP (1 mM) and MgCl2 (5 mM) in a Tris-HCl buffer (pH 8.0, 200 mM) to analyze the substrate specificity of NahKs. Two concentrations (0.75 μM or 15 μM) of each NahK were used and the reactions were allowed to proceed for 10 min (for 0.75 μM NahK) or 30 min (for 15 μM NahK) at 37° C. […] All other conditions were the same as for GlcNAc, GalNAc, and their derivatives.
(§2) Capillary electrophoresis (CE) assays. Based on the detection of ADP and ATP in the reaction mixture by a UV detector, a capillary electrophoresis-based method was developed to directly measure the formation of ADP and N-acetylhexosamine-1-phosphate from ATP and N-acetylhexosamine for characterizing the activities of NahKs.

NahK_ATCC15697 = NahK_ATCC15697 (Bifidobacterium longum, UniProt B7GN78); assay: Substrate specificity CE assay, NahK_ATCC15697; type: biochemical, Bifidobacterium infantis
Protocol: as §1, §2

NahK = assay: Kinase reaction monitored by CE (ATP to ADP), NahK; type: biochemical, Bifidobacterium infantis; conditions: monosaccharide 15 mM, ATP 18 mM, 37° C.
Protocol: Capillary electrophoresis (CE) and thin-layer chromatograph (TLC) assays for kinase reactions. Kinase reactions were carried out at 37° C. in a total volume of 30 μL in Tris-HCl buffer (100 mM, pH 8.0) containing monosaccharide (15 mM), ATP (18 mM, 1.2 eq.), MgCl2 (10 mM), and a kinase (6 μg). These conditions were similar to those used for preparative-scale synthesis. After 1 hr, 4 hr, and 24 hr, an aliquot of 8 μL was withdrawn from each reaction mixture, boiled in a water bath for 5 min and stored at −20° C. until being analyzed by capillary electrophoresis (CE) and TLC. For TLC analysis, 0.5 μL of each sample was directly spotted on TLC plates, developed using suitable developing solvents, and stained with anisaldehyde sugar stain. For CE analysis, 1.5 μL of each sample was diluted into 30 μL and subjected to CE analysis as described above for pH profile studies.
General methods for compound purification and characterization. Chemicals were purchased and used without further purification. ^1H NMR and ^13C NMR spectra were recorded on a Varian Mercury 600 NMR spectrometer. High resolution electrospray ionization (ESI) mass spectra were obtained in negative mode using Thermo Electron LTQ-Orbitrap mass spectrometer. Silica gel 60 Å (Sorbent Technologies) was used for flash column chromatography. Thin-layer chromatography (TLC) was performed on silica gel plates 60 GF254 (Sorbent Technologies) using anisaldehyde sugar stain for detection. Gel filtration chromatography was performed with a column (100 cm×2.5 cm) packed with BioGel P-2 Fine resins (Bio-Rad). GlcN3 (T6-9) (Lau K, Thon, V, Yu H, Ding L, Chen Y, Muthana M M, Wong D, Huang R, and Chen X. Chem. Commun. 2010, 46, 6066-6068), ManF (T6-11) (Burkart M D, Zhang Z, Hung S-C, and Wong C-H. J. Am. Chem. Soc. 1997, 119, 11743-11746; Cao H, Li Y, Lau K, Muthana S, Yu H, Cheng J, Chokhawala H A, Sugiarto G, Zhang L, and Chen X. Org. Biomol. Chem. 2009, 7, 5137-5145), GalN3 (T6-4) and ManN3 (T6-14) (Yu H, Yu H, Karpel R, cand Chen X. Bioorg. Med. Chem. 2004, 12, 6427-6435) were previously synthesized using reported methods. NahK_ATCC15697, EcGalK, SpGalK, and PmPpA were overexpressed as described previously.

[1] = Glc, Gal, Man, ManNAc and derivatives, enzyme 15, 37° C. for 30 min (Table 3)
[2] = 0.75 μM enzyme, 10 min at 37° C., substrate 1 mM, ATP 1 mM
[3] = 15 μM enzyme, 30 min at 37° C., substrate 1 mM, ATP 1 mM (Table 2)
[4] = Glc, Gal, Man, ManNAc and derivatives, enzyme 15, 37° C. for 30 min (Table 3), listed as drawing 49

Row | SMILES | Percentage Conversion (NahK_ATCC55813; [1]) | Percentage Conversion (NahK_ATCC15697; [1]) | Percentage Conversion (NahK_ATCC55813; [2]) | Percentage Conversion (NahK_ATCC55813; [3]) | Percentage Conversion (NahK_ATCC15697; [2]) | Percentage Conversion (NahK_ATCC15697; [3]) | also measured
1 | O=C(CO)NC1C(O)OC(CO)[C@@H](O)C1O (stereo partly drawn) | 5.4 ± 0.2% | 7.6 ± 0.1% |  |  |  |  | 
2 | O=C(CF)NC1C(O)OC(CO)[C@@H](O)C1O (stereo partly drawn) | 9.1 ± 0.2% | 12.0 ± 0.1% |  |  |  |  | 
3 | COCC(=O)NC1C(O)OC(CO)[C@@H](O)C1O (stereo partly drawn) | 7.4 ± 0.3% | 12.0 ± 0.4% |  |  |  |  | 
4 | O=S(=O)(O)NC1C(O)OC(CO)[C@@H](O)C1O (stereo partly drawn) [2-N-sulfo-glucose] |  |  | 0% | 4.0 ± 0.1% | 0% | 6.4 ± 0.2% | 
5 | NC1C(O)OC(CO)[C@@H](O)[C@@H]1O (stereo partly drawn) [2-amino-2-deoxy-glucose] |  |  | 0% | 8.4 ± 0.1% | 0% | 15.0 ± 0.1% | ATP Conversion (NahK; 1 hr): 11.9%; ATP Conversion (NahK; 4 hr): 28.0%; ATP Conversion (NahK; 24 hr): 67.1%
6 | OCC1OC(O)C[C@@H](O)[C@@H]1O (stereo partly drawn) [2-deoxy glucose] | 28.4 ± 0.1% | 44.8 ± 0.2% |  |  |  |  | ATP Conversion (NahK; 1 hr): 36.8%; ATP Conversion (NahK; 4 hr): 69.6%; ATP Conversion (NahK; 24 hr): 79.4%
7 | COC1C(O)OC(CO)[C@@H](O)C1O (stereo partly drawn) [2Me-Man] | 0% | 9.4 ± 0.5% |  |  |  |  | 
8 | [N-]=[N+]=NC1C(O)OC(CO)[C@@H](O)C1O (stereo partly drawn) [2N3-Man] | 40.2 ± 0.2% | 53.3 ± 0.1% |  |  |  |  | ATP Conversion (NahK; 1 hr): 34.9%; ATP Conversion (NahK; 4 hr): 65.9%; ATP Conversion (NahK; 24 hr): 76.4%
9 | [N-]=[N+]=N[C@@H](C=O)[C@@H](OS(=O)(=O)O)[C@H](O)[C@H](O)CO [3-O-sulfo-2-azido-2-deoxy glucose] |  |  | 0% | 3.9 ± 0.1% | 0% | 4.9 ± 0.1% | 
10 | OCC1CC(O)C(O)C(O)O1 (stereo not drawn) [4-deoxyMan] | 23.9 ± 0.1% | 37.1 ± 0.2% |  |  |  |  | 
11 | [N-]=[N+]=NC1C(O)OC(COS(=O)(=O)O)[C@@H](O)[C@@H]1O (stereo partly drawn) [6-O-sulfo-2-azido-2-deoxy glucose] |  |  | 0% | 4.4 ± 0.1% | 0% | 6.9 ± 0.1% | 
12 | CC(=O)NC1C(O)OC(COS(=O)(=O)O)[C@@H](O)C1O (stereo partly drawn) [6-O-sulfo-GlcNAc] |  |  | 0% | 6.6 ± 0.1% | 0% | 11.7 ± 0.2% | 
13 | O=C(NC1C(O)OC(COS(=O)(=O)O)[C@@H](O)C1O)C(F)(F)F (stereo partly drawn) [6-O-sulfo-N-trifluoroacetyl glucosamine] |  |  | 0% | 3.3 ± 0.2% | 0% | 7.2 ± 0.1% | 
14 | CC(=O)NC1C(O)OC(CN=[N+]=[N-])[C@@H](O)C1O (stereo partly drawn) [6-azido-6-deoxy-GlcNAc] |  |  | 0% | 23.4 ± 0.1% | 0% | 37.2 ± 0.5% | 
15 | CC(=O)NC1C(O)OC(C)[C@@H](O)C1O (stereo partly drawn) [6-deoxy-GlcNAc] |  |  | 2.1 ± 0.2% | 36.3 ± 0.3% | 4.4 ± 1.2% | 41.8 ± 0.3% | 
16 | [N-]=[N+]=NCC(=O)NC1C(O)OC(CO)[C@H](O)C1O (stereo partly drawn) [GalNAcN3] |  |  | 21.0 ± 1.2% |  | 9.9 ± 0.6% |  | 
17 | CCCC(=O)NC1C(O)OC(CO)[C@H](O)C1O (stereo partly drawn) [GalNBu] |  |  | 24.0 ± 0.1% |  | 12.1 ± 0.3% |  | 
18 | O=C(NC1C(O)OC(CO)[C@H](O)C1O)c1ccccc1 (stereo partly drawn) [GalNBz] |  |  | 0% | 51.9 ± 0.5% | 0% | 62.2 ± 1.0% | 
19 | O=C(NC1C(O)OC(CO)[C@H](O)C1O)C(F)(F)F (stereo partly drawn) [GalNTFA] |  |  | 21.8 ± 0.2% |  | 11.2 ± 1.6% |  | 
20 | CC(=O)NC1C(O)OC(CO)[C@@H](O)[C@@H]1O (stereo partly drawn) [GlcNAc, N-acetylglucosamine] |  |  | 42.3 ± 0.2% |  | 35.4 ± 0.1% |  | ATP Conversion (NahK; 1 hr): 72.6%; ATP Conversion (NahK; 4 hr): 84.6%; ATP Conversion (NahK; 24 hr): 85.5%
21 | [N-]=[N+]=NCC(=O)NC1C(O)OC(CO)[C@@H](O)C1O (stereo partly drawn) [GlcNAcN3] |  |  | 22.8 ± 0.4% |  | 11.5 ± 1.0% |  | 
22 | CCCC(=O)NC1C(O)OC(CO)[C@@H](O)C1O (stereo partly drawn) [GlcNBu] |  |  | 35.0 ± 2.0% |  | 20.9 ± 0.6% |  | 
23 | O=C(NC1C(O)OC(CO)[C@@H](O)C1O)c1ccccc1 (stereo partly drawn) [GlcNBz] |  |  | 5.2 ± 0.2% |  | 10.3 ± 0.4% |  | 
24 | O=C(NC1C(O)OC(CO)[C@@H](O)C1O)C(F)(F)F (stereo partly drawn) [GlcNTFA] |  |  | 16.2 ± 0.9% |  | 10.7 ± 0.9% |  | 
25 | OCC1OC(O)C(O)[C@@H](O)[C@@H]1O (stereo partly drawn) [Man, mannose] |  |  |  |  |  |  | ATP Conversion (NahK; 1 hr, listed as T6-11 Man): 29.6%; ATP Conversion (NahK; 4 hr, listed as T6-11 Man): 69.3%; ATP Conversion (NahK; 24 hr, listed as T6-11 Man): 75.1%; Percentage Conversion (NahK_ATCC55813; [4]): 37.1 ± 0.4%; Percentage Conversion (NahK_ATCC15697; [4]): 68.0 ± 1.7%
26 | COCC1OC(O)C(NC(C)=O)[C@@H](O)[C@@H]1O (stereo partly drawn) [N-acetyl-6-O-methylmannosamine] | 28.9 ± 0.1% | 32.6 ± 0.1% |  |  |  |  | 
27 | [N-]=[N+]=NCC(=O)N[C@@H]1C(O)O[C@H](CO)[C@@H](O)[C@@H]1O (stereo partly drawn) [N-azidoacetylmannosamine] | 18.6 ± 0.4% | 20.3 ± 0.3% |  |  |  |  | 
28 | N[C@@H]1C(O)O[C@H](CO)[C@@H](O)[C@@H]1O (stereo partly drawn) [T6-13 ManNH2, mannosamine] |  |  |  |  |  |  | ATP Conversion (NahK; 1 hr): 10.3%; ATP Conversion (NahK; 4 hr): 22.8%; ATP Conversion (NahK; 24 hr): 58.0%
